{"source": "patent US20040198795A1", "about": "“Substituted imidazoliums and methods of use therefor” (priority 1996, published 2004)", "key": {"[1]": {"biological_target": "T1, AGE-BSA previously crosslinked to the collagen (Bos taurus, UniProt P02769)", "T1 construct": "Bovine Serum Albumin (Type V), (BSA) Calbiochem; purchased Calbiochem (BSA, Type V); Collaborative Biomedical Products (Biocoat collagen plates)", "T1 sequence (P02769 25-607)": "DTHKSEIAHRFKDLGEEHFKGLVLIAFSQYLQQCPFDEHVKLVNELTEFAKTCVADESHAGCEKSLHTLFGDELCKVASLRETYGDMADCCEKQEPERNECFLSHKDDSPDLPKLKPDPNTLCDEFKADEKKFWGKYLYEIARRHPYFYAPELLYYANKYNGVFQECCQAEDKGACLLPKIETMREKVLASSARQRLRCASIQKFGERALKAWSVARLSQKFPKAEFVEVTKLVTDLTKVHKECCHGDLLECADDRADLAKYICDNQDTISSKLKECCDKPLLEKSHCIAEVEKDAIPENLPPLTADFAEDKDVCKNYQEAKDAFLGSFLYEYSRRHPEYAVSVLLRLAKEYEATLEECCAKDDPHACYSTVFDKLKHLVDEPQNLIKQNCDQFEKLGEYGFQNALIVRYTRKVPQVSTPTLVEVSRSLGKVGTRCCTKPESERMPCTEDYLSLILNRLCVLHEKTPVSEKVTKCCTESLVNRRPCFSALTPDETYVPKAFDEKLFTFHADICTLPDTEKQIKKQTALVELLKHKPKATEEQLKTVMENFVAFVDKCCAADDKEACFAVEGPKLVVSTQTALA", "assay": "Sandwich enzyme immunoassay for breaking of AGE-BSA cross-linked to collagen", "type": "biochemical", "details": "10 mM, 16 hours, 37° C.; for % breaking, Pr AbαAGE: primary antibody anti-AGE-RNase; for % breaking, PrAbαBSA: primary antibody anti-BSA", "method": "In order to ascertain the ability of the compounds of the instant invention to “break” or reverse already formed advanced glycosylation endproducts, a novel sandwich enzyme immunoassay was developed which detects breaking of AGE (Advanced glycosylation endproduct) moieties from AGE-crosslinked protein. […] Following an incubation period of 16 hours (37° C.) cross-link-breaking is detected using an antibody raised against AGE-ribonuclease or with an antibody against BSA. […] Details of the assay are as follows:\n1. AGE-BSA stock solutions were prepared as follows. Sodium phosphate buffer (0.4 M) was prepared by dissolving 6 grams of monobasic sodium phosphate in 100 ml of distilled water, 7 grams of dibasic sodium phosphate (0.4 M) in 100 ml of distilled water and adjusting the pH of the dibasic solution to 7.4 with the monobasic solution. Sodium azide (0.02 grams) was added per 100 ml volume to inhibit bacterial growth. The BSA solution was prepared as follows: 400 mg of Type V BSA (bovine serum albumin) was added for each ml of sodium phosphate buffer (above). A 400 mM glucose solution was prepared by dissolving 7.2 grams of dextrose in 100 ml of sodium phosphate buffer (above). The BSA and glucose solutions were mixed 1:1 and incubated at 37° C. for 12 weeks. The pH of the incubation mixture was monitored weekly and adjusted to pH 7.4 if necessary. After 12 weeks, the AGE-BSA solution was dialyzed against PBS for 48 hours with four buffer changes, each at a 1:500 ratio of solution to dialysis buffer.\n2. Working solutions for crosslinking and breaking studies were prepared as follows. Test compounds were dissolved in PBS and the pH was adjusted to pH 7.4 if necessary. […] The concentration of AGE-BSA necessary to achieve the optimum sensitivity was determined by initial titration of each lot of AGE-BSA.\n1. Biocoat plates were blocked with 300 μl of “Superbloc”. Plates were blocked for one hour at room temperature and were washed with PBS-Tween three times with the Dynatech platewasher before addition of test reagents.\n2. Each experiment was set up in the following manner. The first three wells of the Biocoat plate were used for the reagent blank. Fifty microliters of solutions AGE-BSA were added to test wells in triplicate and only PBS in blank wells."}, "[2]": {"tested_on": "AGE receptor on macrophages (RAW 264.7 cells)", "assay": "Radioligand binding assay for upregulation of the AGE receptor on macrophages", "type": "cell-based", "details": "iodinated AGE-BSA", "method": "To study the effects of test compounds on the upregulation of the AGE receptor on macrophages, the following radioligand binding assay was utilized.\n2. One day prior to assay, 1.0 ml of cells are plated per well onto 24 well culture plates at a concentration of 0.75×10^6 cells per ml.\n4. […] One ml of the ligand mixture is added to the appropriate wells and the plates are place at 4° C. on a rocking platform for four hours.\n6. To each well is added 1.0 ml of 1.0 N sodium hydroxide for fifteen to thirty minutes. The disrupted cells are removed using a cotton tipped swab. After placing the swab in the appropriate tube for gamma counting, the medium remaining in each well is collected and added to the tubes containing the swabs. Each well is washed twice with 0.5 ml of 1.0 N sodium hydroxide which is then added to the appropriate tubes.\n7. The samples are counted in an LKB gamma counter and the final numbers are used to determine the percent specific binding as well as the Ka, the Kd and the number of receptors per cell."}, "[3]": {"biological_target": "cross-linking of glycated bovine serum albumin (AGE-BSA) to the rat tail tendon collagen (Bos taurus, UniProt P02769)", "sequence (P02769 25-607)": "as above", "assay": "Inhibition of cross-linking of AGE-BSA to rat tail tendon collagen coated plate (ELISA)", "details": "for % Inh.: at 10 mM, PBS pH 7.4, 37° C., 4 hours", "method": "The following method was used to evaluate the ability of the compounds of the present invention to inhibit the cross-linking of glycated bovine serum albumin (AGE-BSA) to the rat tail tendon collagen coated 96-well plate.\nThe glycated BSA was then extensively dialyzed against phosphate buffer solution (PBS) for 48 hours with additional 5 times buffer exchanges. […] The blocking solution was removed from the wells by washing the plate twice with PAS-Tween 20 solution (0.05% Tween 20) using a NUNC-multiprobe or Dynatech ELISA-plate washer. […] The unbrowned BSA in PBS buffer with or without testing compound were added to the separate wells as the blanks. The uncross-linked AGE-BSA was then removed by washing the wells three times with PBS-Tween buffer. The cross-linked AGE-BSA to the tail tendon coated plate was then quantitated by the polyclonal antibody raised against AGE-RNase. After a one-hour incubation period, AGE antibody was removed by washing 4 times with PBS-Tween.\nThe bound AGE antibody was then detected with the addition of horseradish peroxidase-conjugated secondary antibody, e.g., goat anti-rabbit immunoglobulin and incubation for 30 minutes. […] The reaction was allowed for an additional 15 minutes and the absorbance was read at 410 nm in a Dynatech plate reader.\nThe % inhibition of each test compound was calculated as follows."}, "[4]": {"tested_on": "aortic wall protein cross-linking", "details": "diabetic rats; cited from earlier work"}, "[5]": {"tested_on": "immunoglobulin trapping in the kidney", "details": "Brownlee et al. 1986; cited from earlier work"}, "[6]": {"tested_on": "glomerular basement membrane thickness", "details": "streptozotocin-diabetic rat model; cited from earlier work"}, "red blood cells": {"tested_on": "red blood cells", "details": "in vivo; cited from earlier work"}, "[7]": {"tested_on": "fixed protein (gelatin, i.e., collagen) surface", "assay": "Surface browning experiment on gelatin/paper disks with glucose-6-phosphate", "details": "Peridex at final 0.04% chlorhexidine, 100 Mm glucose-6-phosphate, one week at 50° C., pH 7.4", "method": "To further study the ability of inhibitors of nonenzymatic browning to prevent the discoloration of protein on a surface, such as that which occurs on the tooth surface, the following surface browning experiment is performed. As a substitute for a pellicle-covered tooth surface, unexposed and developed photographic paper is used to provide a fixed protein (gelatin, i.e., collagen) surface on a paper backing. Five millimeter circles are punched and immersed for one week at 50° C. in a solution of 100 Mm glucose-6-phosphate in a 0.5 M phosphate buffer, pH 7.4, containing 3 Mm sodium azide. Glucose-6-phosphate is a sugar capable of participating in nonenzymatic browning at a more rapid rate than glucose. In addition to the glucose-6-phosphate, chlorhexidine and/or a compound of Formula I are included. After incubation, the gelatin/paper disks are rinsed with water, observed for brown color, and photographed."}, "[8]": {"details": "Nordbo 1979; cited from earlier work"}}}
{"compound": "Cn1cc[n+](CC(N)=O)c1.[Br-]", "values": [{"measurement": "melting point", "result": "183 to 185", "unit": "°C"}]}
{"compound": "Cn1cc[n+](CC(=O)c2ccccc2)c1.[Br-]", "values": [{"measurement": "melting point", "result": "108 to 110", "unit": "°C"}]}
{"compound": "1-methyl-3-[2-(3′-methoxyphenyl)-2-oxoethyl]-imidazolium bromide", "values": [{"measurement": "% breaking, Pr AbαAGE", "setting": "[1]", "result": 20, "unit": "%"}, {"measurement": "% breaking, PrAbαBSA", "setting": "[1]", "result": 24, "unit": "%"}, {"measurement": "Specific Binding Expressed as % Control, Day 1", "setting": "[2]", "result": 125, "unit": "%"}, {"measurement": "Specific Binding Expressed as % Control, Day 2", "setting": "[2]", "result": 132, "unit": "%"}, {"measurement": "Specific Binding Expressed as % Control, Day 3", "setting": "[2]", "result": 143, "unit": "%"}, {"measurement": "Specific Binding Expressed as % Control, Day 4", "setting": "[2]", "result": 360, "unit": "%"}]}
{"compound": "CCOC(=O)CCCCCn1cc[n+](CC(=O)c2cccc(OC)c2)c1.[Br-]", "note": "[1-(ethoxycarbonylpentyl)-3-[2-(3′-methoxyphenyl)-2-oxoethyl]-imidazolium bromide]", "values": [{"measurement": "% Inh.", "setting": "[3]", "result": 40, "unit": "%"}]}
{"compound": "CCN(CC)c1ccc(C(=O)Cn2cc[n+](C)c2)cc1", "note": "[1-Methyl-3-[2-(4′-diethylaminophenyl)-2-oxo-ethyl]-imidazolium bromide]", "values": [{"measurement": "IC50", "setting": "[3]; rat, 4 h, pH 7.4", "result": 1.75, "unit": "mM"}, {"measurement": "% breaking, Pr AbαAGE", "setting": "[1]", "result": 32, "unit": "%"}, {"measurement": "% breaking, PrAbαBSA", "setting": "[1]", "result": 28, "unit": "%"}]}
{"compound": "Cn1cc[n+](CC(=O)c2ccc(Br)cc2)c1.[Br-]", "note": "[1-methyl-3-[2-(4′-bromophenyl)-2-oxoethyl]-imidazolium bromide]", "values": [{"measurement": "% Inh.", "setting": "[3]", "result": 23, "unit": "%"}]}
{"compound": "COc1ccc(C(=O)C[n+]2ccn(C)c2)cc1.[Br-]", "note": "[1-methyl-3-[2-(4′-methoxyphenyl)-2-oxoethyl]-imidazolium bromide]", "values": [{"measurement": "% breaking, Pr AbαAGE", "setting": "[1]", "result": 38, "unit": "%"}, {"measurement": "% breaking, PrAbαBSA", "setting": "[1]", "result": 27, "unit": "%"}, {"measurement": "Specific Binding Expressed as % Control, Day 1", "setting": "[2]", "result": 185, "unit": "%"}, {"measurement": "Specific Binding Expressed as % Control, Day 2", "setting": "[2]", "result": 132, "unit": "%"}, {"measurement": "Specific Binding Expressed as % Control, Day 3", "setting": "[2]", "result": 145, "unit": "%"}, {"measurement": "Specific Binding Expressed as % Control, Day 4", "setting": "[2]", "result": 423, "unit": "%"}]}
{"compound": "N=C(N)NN", "note": "[aminoguanidine]", "values": [{"measurement": "Aortic wall protein cross-linking", "setting": "[4]", "result": "diminishes aortic wall protein cross-linking"}, {"measurement": "Immunoglobulin trapping in the kidney", "setting": "[5]", "result": "reduction of immunoglobulin trapping in the kidney"}, {"measurement": "Increased glomerular basement membrane thickness", "setting": "[6]", "result": "prevented"}, {"measurement": "Diabetes-induced changes in the deformability of red blood cells", "setting": "red blood cells", "result": "prevent it"}]}
{"compound": "[H]/N=C(\\N/C(=N/[H])NCCCCCCNC(=N)NC(=N)Nc1ccc(Cl)cc1)Nc1ccc(Cl)cc1", "note": "[chlorhexidine]", "values": [{"measurement": "Brown color of gelatin/paper disks", "setting": "[7]", "result": "significant browning"}, {"measurement": "Effect on browning reactions in vitro", "setting": "[8]", "result": "catalyze browning reactions"}]}
{"compound": "benzalkonium chloride", "values": [{"measurement": "Effect on browning reactions in vitro", "setting": "[8]", "result": "catalyze browning reactions"}]}
